Test results: patent publication US10786484B2, “Mono- or di-substituted indole derivatives as dengue viral replication inhibitors” (Janssen Pharmaceuticals, Inc., priority 2015, dated 2020)
Like-named read-outs stand apart in the source and are kept apart here.

Columns and labels:
DENV-1 strain TC974#666 = assay: Tetravalent RT-qPCR assay Protocol A, serotype 1; format: cell-based; details: Dengue virus, DENV1, 72 h; RT-qPCR serotype 1 TC974#666, Vero cells, day 3
Method: (§1) The antiviral activity of the compounds of the invention was tested against DENV-1 strain TC974#666 (NCPV), DENV-2 strain 16681, DENV-3 strain H87 (NCPV) and DENV-4 strains H241 (NCPV) and EDEN (SG/06K2270DK1/2005; GenBank accession number QG398256) in a RT-qPCR assay. Therefore, Vero cells were infected with either DENV-1, or -2, or -3, or -4 in the presence or absence of test compounds. At day 3 post-infection, the cells were lysed and cell lysates were used to prepare cDNA of both a viral target (the 3′UTR of DENV; Table 2) and a cellular reference gene (β-actin, Table 2). Subsequently, a duplex real time PCR was performed on a Lightcycler480 instrument. The generated Cp value is inversely proportional to the amount of RNA expression of these targets. Inhibition of DENV replication by a test compound results in a shift of Cp's for the 3′UTR gene. On the other hand, if a test compound is toxic to the cells, a similar effect on β-actin expression will be observed. The comparative ΔΔCp method is used to calculate EC50, which is based on the relative gene expression of the target gene (3′UTR) normalized with the cellular housekeeping gene (β-actin). In addition, CC50 values are determined based on the Cp values acquired for the housekeeping gene β-actin.
(§2) The culture medium consisted of minimal essential medium supplemented with 2% of heat-inactivated fetal calf serum, 0.04% gentamycin (50 mg/mL) and 2 mM of L-glutamine. Vero cells, obtained from ECACC, were suspended in culture medium and 75 μL/well was added in 96-well plates (10000 cells/well), which already contain the antiviral compounds. […] In addition, each plate contains wells which are assigned as virus controls (containing cells and virus in the absence of compound) and cell controls (containing cells in the absence of virus and compound). Once the cells were added in the plates, the plates were incubated in a fully humidified incubator (37° C., 5% CO2) until the next day. Dengue viruses serotype-1, 2, 3 and 4 were diluted in order to obtain a Cp of ˜22-24 in the assay. Therefore, 25 μL of virus suspension, was added to all the wells containing test compound and to the wells assigned as virus control. In parallel, 25 μL of culture medium was added to the cell controls. Next, the plates were incubated for 3 days in a fully humidified incubator (37° C., 5% CO2). After 3 days, the supernatant was removed from the wells and the cells were washed twice with ice-cold PBS (−100 μL). The cell pellets within the 96-well plates were stored at −80° C. for at least 1 day. Next, RNA was extracted using the Cells-to-CT™ lysis kit, according to the manufacturer's guideline (Life Technologies). The cell lysates can be stored at −80° C. or immediately used in the reverse transcription step.
(§3) In preparation of the reverse transcription step, mix A (table 3A) was prepared and 7.57 μL/well was dispensed in a 96-well plate. After addition of 5 μL of the cell lysates, a five minute denaturation step at 75° C. was performed (table 3B). Afterwards, 7.43 μL of mix B was added (table 3C) and the reverse transcription step was initiated (table 3D) to generate cDNA.
(§4) Finally, a RT-qPCR mix was prepared, mix C (table 4A), and 22.02 μL/well was dispensed in 96-well LightCycler qPCR plates to which 3 μL of cDNA was added and the qPCR was performed according to the conditions in table 4B on a LightCycler 480.
(§5) Using the LightCycler software and an in-house LIMS system, dose response curves for each compound were calculated and the half maximal effective concentration (EC50) and the half maximal cytotoxic concentration (CC50) were determined (Tables 5-8).

Vero cells [1] = details: African green monkey
DENV-4 strain H241 = assay: Tetravalent RT-qPCR assay Protocol A, serotype 4 H241; format: cell-based; details: Dengue virus, DENV4, 72 h; RT-qPCR serotype 4 H241, Vero cells, day 3
Method: as §1, §2, §3, §4, §5

[2] = system: DENV-4 strain EDEN (SG/06K2270DK1/2005); assay: Tetravalent RT-qPCR assay Protocol A, serotype 4 EDEN; format: cell-based; details: Dengue virus, DENV4, 72 h; RT-qPCR serotype 4 EDEN, Vero cells, day 3
Method: as §1, §2, §3, §4, §5

in vitro [3] = format: cell-based; details: African green monkey, CC50
Method: as §1, §2, §5

[4] = system: DENV-2 16681 strain labeled with eGFP; assay: DENV-2 antiviral assay (eGFP fluorescence read-out in Vero cells); format: cell-based, Dengue virus; details: DENV-2 16681 eGFP, MOI 0.5, 3 days
Method: The antiviral activity of all the compounds of the invention was tested against the DENV-2 16681 strain which was labeled with enhanced green fluorescent protein (eGPF). The culture medium consists of minimal essential medium supplemented with 2% of heat-inactivated fetal calf serum, 0.04% gentamycin (50 mg/mL) and 2 mM of L-glutamine. Vero cells, obtained from ECACC, were suspended in culture medium and 25 μL was added to 384-well plates (2500 cells/well), which already contain the antiviral compounds. Typically, these plates contain a 5-fold serial dilution of 9 dilution steps of the test compound at 200 times the final concentration in 100% DMSO (200 nL). […] Finally, each plate contains wells which are assigned as virus controls (containing cells and virus in the absence of compound), cell controls (containing cells in the absence of virus and compound) and medium controls (containing medium in the absence of cells, virus and compounds). To the wells assigned as medium control, 25 μL of culture medium was added instead of Vero cells. Once the cells were added to the plates, the plates were incubated for 30 minutes at room temperature to allow the cells to distribute evenly within the wells. Next, the plates were incubated in a fully humidified incubator (37° C., 5% CO2) until the next day. Then, DENV-2 strain 16681, labeled with eGFP, was added at a multiplicity of infection (MOI) of 0.5. Therefore, 15 μL of virus suspension was added to all the wells containing test compound and to the wells assigned as virus control. In parallel, 15 μL of culture medium was added to the medium and cell controls. Next, the plates were incubated for 3 days in a fully humidified incubator (37° C., 5% CO2). At the day of the read out, the eGFP fluorescence was measured using an automated fluorescence microscope at 488 nm (blue laser). Using an in-house LIMS system, inhibition dose response curves for each compound were calculated and the half maximal effective concentration (EC50) was determined. Therefore, the percent inhibition (I) for every test concentration is calculated using the following formula: I=100*([…])/(SVC−SCC); ST, SCC and SVC are the amount of eGFP signal in the test compound, cell control and virus control wells, respectively. The EC50 represents the concentration of a compound at which the virus replication is inhibited with 50%, as measured by a 50% reduction of the eGFP fluorescent intensity compared to the virus control. The EC50 is calculated using linear interpolation (Table 1).

DENV-3 strain H87 = assay: Tetravalent RT-qPCR assay Protocol A, serotype 3; format: cell-based; details: Dengue virus, DENV3, 72 h; RT-qPCR serotype 3 H87, Vero cells, day 3
Method: as §1, §2, §3, §4, §5

DENV-2 strain 16681 = assay: Tetravalent RT-qPCR assay Protocol A, serotype 2; format: cell-based; details: Dengue virus, DENV2, 72 h; RT-qPCR serotype 2 16681, Vero cells, day 3
Method: as §1, §2, §3, §4, §5

in vitro [5] = details: African green monkey
Vero cells [6] = assay: in vitro; format: cell-based; details: African green monkey, 3 days
Method: as §1, §2, §5

SMILES	EC50 (DENV-1 strain TC974#666)	CC50 (Vero cells [1])	EC50 (DENV-4 strain H241)	EC50 [2]	CC50 at 3 days (in vitro [3])	EC50 [4]	EC50 (DENV-3 strain H87)	EC50 (DENV-2 strain 16681)	CC50 (in vitro [5])	CC50 (Vero cells [6])
COc1cc(NC(C(=O)c2c[nH]c3c(C)c(Cl)ccc23)c2ccc(F)cc2OCCO)cc(S(C)(=O)=O)c1 (single isomer, unassigned) [Compound 4B, 1-(6-chloro-7-methyl-1H-indol-3-yl)-2-(4-fluoro-2-(2-hydroxyethoxy)phenyl)-2-((3-methoxy-5-(methylsulfonyl)phenyl)amino)ethanone]	3.3 nM	3800 nM	140 nM	3.2 nM	> 2500 nM	0.2 nM	55 nM	0.21 nM	–	–
COc1cc(NC(C(=O)c2c[nH]c3cc(Cl)ccc23)c2ccc(F)cc2OCCO)cc(S(C)(=O)=O)c1 (single isomer, unassigned) [Compound 2A, 1-(6-chloro-1H-indol-3-yl)-2-(4-fluoro-2-(2-hydroxyethoxy)phenyl)-2-((3-methoxy-5-(methylsulfonyl)phenyl)amino)-ethanone]	2.8 nM	4900 nM	170 nM	2.3 nM	4800 nM	0.32 nM	48 nM	0.4 nM	–	–
COc1cc(NC(C(=O)c2c[nH]c3cc(F)ccc23)c2ccc(F)cc2OCCO)cc(S(C)(=O)=O)c1 (single isomer, unassigned) [Compound 1A, 1-(6-fluoro-1H-indol-3-yl)-2-(4-fluoro-2-(2-hydroxyethoxy)phenyl)-2-((3-methoxy-5-(methylsulfonyl)phenyl)amino)ethanone]	8.5 nM	–	290 nM	3.6 nM	–	0.78 nM	68 nM	1.1 nM	8600 nM	–
COc1cc(NC(C(=O)c2c[nH]c3cc(OC)c(OC(F)(F)F)cc23)c2ccc(F)cc2OCCO)cc(S(C)(=O)=O)c1 (single isomer, unassigned) [Compound 11B, 2-(4-fluoro-2-(2-hydroxyethoxy)phenyl)-2-((3-methoxy-5-(methyl-sulfonyl)phenyl)amino)-1-(6-methoxy-5-(trifluoromethoxy)-1H-indol-3-yl)ethanone]	0.6 nM	2400 nM	34 nM	–	> 2500 nM	0.2 nM	7.3 nM	0.14 nM	–	> 2500 nM
COc1cc(NC(C(=O)c2c[nH]c3cc(OC)c(C)cc23)c2ccc(F)cc2OCCO)cc(S(C)(=O)=O)c1 (single isomer, unassigned) [Compound 6A, 2-(4-fluoro-2-(2-hydroxyethoxy)phenyl)-2-((3-methoxy-5-(methylsulfonyl)phenyl)amino)-1-(6-methoxy-5-methyl-1H-indol-3-yl)ethanone]	3.5 nM	5600 nM	110 nM	3.4 nM	–	0.47 nM	43 nM	0.84 nM	–	–
COc1cc(NC(C(=O)c2c[nH]c3cc(F)c(F)cc23)c2ccc(F)cc2OCCO)cc(S(C)(=O)=O)c1 (single isomer, unassigned) [Compound 5A, 1-(5,6-difluoro-1H-indol-3-yl)-2-(4-fluoro-2-(2-hydroxyethoxy)phenyl)-2-((3-methoxy-5-(methylsulfonyl)phenyl)-amino)ethanone]	4.1 nM	3400 nM	180 nM	3.7 nM	> 2500 nM	0.51 nM	61 nM	0.71 nM	–	–
COc1cc(NC(C(=O)c2c[nH]c3c(C)c(F)ccc23)c2ccc(F)cc2OCCO)cc(S(C)(=O)=O)c1 (single isomer, unassigned) [Compound 3A, 2-(4-fluoro-2-(2-hydroxyethoxy)phenyl)-1-(6-fluoro-7-methyl-1H-indol-3-yl)-2-((3-methoxy-5-(methylsulfonyl)phenyl)amino)ethanone]	3.3 nM	4000 nM	190 nM	5.1 nM	> 2500 nM	0.4 nM	45 nM	0.43 nM	–	–
COc1cc(NC(C(=O)c2c[nH]c3ccc(OC(F)(F)F)cc23)c2ccc(F)cc2OCCO)cc(S(C)(=O)=O)c1 (single isomer, unassigned) [Compound 10B, 2-(4-fluoro-2-(2-hydroxyethoxy)phenyl)-2-((3-methoxy-5-(methylsulfonyl)phenyl)amino)-1-(5-(trifluoromethoxy)-1H-indol-3-yl)ethanone]	0.2 nM	2600 nM	12 nM	–	> 2500 nM	0.12 nM	2.1 nM	0.057 nM	–	–
